Results published in patent publication US9670266B2, “Method and composition for crystallizing G protein-coupled receptors” (The Board of Trustees of the Leland Stanford Junior …, priority 2007, dated 2017).
Like-named read-outs stand apart in the source and are kept apart here.

Tests used:
[1] = system: β2AR-T4L; assay type: binding
[2] = system: β2AR-T4L; conditions: for λmax ± SD for β2AR-T4L: bimane emission, excitation 350 nm, 15 min incubation with saturating ligand; for ligand-induced change of bimane fluorescence / Intensity at λmax Ligand/Intensity at λmax none: β2AR-T4L; for Intensity at λmax Ligand/Intensity at λmax none: 15 min incubation with ligand
[3] = molecular target: wild-type β2AR (Homo sapiens, UniProt P07550); assay: Saturation binding of [^3H]DHA to membranes from Sf9 cells expressing wild-type β2AR
[4] = molecular target: wild-type β2AR (Homo sapiens, UniProt P07550, E27Q/G16R/N187E); assay: as above; conditions: read-out: Kd ± SE
[5] = molecular target: β2AR-T4L (Homo sapiens, UniProt P07550, E27Q/G16R/N187E); assay: Saturation binding of [^3H]DHA to membranes from Sf9 cells expressing β2AR-T4L
Protocol: Membrane preparation from baculovirus-infected Sf9 cells was performed as described previously (G. Swaminath, J. Steenhuis, B. Kobilka, T. W. Lee, Mol Pharmacol 61, 65 (2002)). For each binding reaction, membranes containing 0.7 μg total membrane protein were used. Saturation binding of [^3H]-dihydroalprenolol (DHA) was measured by incubating membranes resuspended in 500 μl binding buffer (75 mM Tris, 12.5 mM MgCl2, 1 mM EDTA, pH 7.4, supplemented with 0.4 mg/ml BSA) with 12 different concentrations of [^3H]DHA (Perkin Elmer) between 20 pM and 10 nM. After 1 h incubation with shaking at 230 rpm, membranes were filtered from the binding reactions with a Brandel harvester, washed with binding buffer, and measured for bound [^3H]DHA with a Beckman LS6000 scintillation counter. […] For competition binding, membranes resuspended in 500 μl binding buffer were incubated with 0.5 nM [^3H]DHA plus increasing concentrations of the competing ligand (all compounds were purchased from Sigma). […] Each data point in the curves in FIGS. 4A and 10 represents the mean of three separate experiments, each done in triplicate. Binding data were analyzed by nonlinear regression analysis using Graphpad Prism.

[6] = molecular target: β2AR Val114^3.33 to alanine mutant (Homo sapiens, UniProt P07550, V114A); conditions: cited from earlier work

Q: Which results are given for CC(C)NC[C@H](O)c1ccc(O)c(O)c1 [(−)-isoproteronol, (−)-isoproterenol]?
A: affinity of β2AR-T4L relative to wild-type β2AR ([1]; competition binding): two to three-fold higher; λmax ± SD for β2AR-T4L [2]: 455 ± 2 nm; ligand-induced change of bimane fluorescence [2]: qualitatively similar decrease in intensity and rightward shift in λmax; Intensity at λmax Ligand/Intensity at λmax none [2]: 0.824 ± 0.006

Q: Which Bmax [3] does the source give for CCCc1ccccc1OCC(O)CNC(C)C (centres unmarked) [[^3H]DHA, [^3H]-dihydroalprenolol] here?
A: 30.0 ± 0.5 pmol/mg

Q: What about the Kd [4] of the same compound?
A: 0.161 ± 0.012 nM

Q: And the “affinity of β2AR-T4L relative to wild-type β2AR” value [5]?
A: wild-type affinity

Q: What about the Bmax ([5]; β2AR-T4L, Sf9 membranes) of the same compound?
A: 21.6 ± 0.5 pmol/mg

Q: What about the Kd ([5]; β2AR-T4L, Sf9 membranes, read-out: Kd ± SE) of the same compound?
A: 0.18 ± 0.016 nM

Q: Which “λmax ± SD for β2AR-T4L” value [2] does the source give for CC(C)(C)NCC(O)c1ccc(O)c(CO)c1 (centres unmarked) [salbutamol] here?
A: 449 ± 1 nm

Q: And the “ligand-induced change of bimane fluorescence” value [2]?
A: larger responses in β2AR-T4L than were observed in wild-type β2AR

Q: And the “Intensity at λmax Ligand/Intensity at λmax none” value [2]?
A: 0.928 ± 0.009

Q: With (−)-epinephrine as the compound, how does the “affinity of β2AR-T4L relative to wild-type β2AR” value [1] read?
A: two to three-fold higher

Q: And the “lowering of β2AR affinity on mutation of Val114^3.33 to alanine” value [6]?
A: 300 fold
